Measurements reported in article PMC12498136, “Synthesis and biological evaluation of novel carnosic acid derivatives with anticancer activity” (RSC Advances, 2025).
Like-named read-outs stand apart in the source and are kept apart here.

What was measured:
HCT116 cells [1] = assay: MTT cell viability assay in HCT116 cells; assay type: cell-based; conditions: for IC50: Homo sapiens, read-out: IC50 HCT116
Description: The MTT assay was used to assess the effect of the compounds on cell viability. […] Subsequently, the culture medium was switched with a new medium containing DMSO (control) or the compound at a specified concentration. […] The plates were then incubated for 1 h at 37 °C. After this time, the supernatant was aspirated, and the formazan crystals were dissolved in 100 μL of DMSO in each well. Relative cell viability was calculated by measuring absorbance at 570 nm using a Benchmark Plus Microplate Reader (Bio-Rad Laboratories, Hercules, CA, USA).

SW620 cells [2] = assay: MTT cell viability assay in SW620 cells; assay type: cell-based; conditions: Homo sapiens, SW-620; MTT assay, 72 h incubation, mean ± SD; read-out: IC50 SW620
Description: (§1) The MTT assay was used to assess the effect of the compounds on cell viability. For this purpose, A375 (1500 cells per well), BJ (10 000 cells per well), Caco-2 (4000 cells per well), HCT116 (3000 cells per well), Mia Paca-2 (2000 cells per well), SW480 (6000 cells per well), and SW620 (8000 cells per well) cells were seeded in 96-well plates and incubated for 24 h. Subsequently, the culture medium was switched with a new medium containing DMSO (control) or the compound at a specified concentration. Following a 72 h incubation period, the supernatant was aspirated, and 100 μL of a mixture (1 : 1) of filtered MTT solution (1 mg per mL PBS) and FBS-free medium was added. The plates were then incubated for 1 h at 37 °C. After this time, the supernatant was aspirated, and the formazan crystals were dissolved in 100 μL of DMSO in each well. Relative cell viability was calculated by measuring absorbance at 570 nm using a Benchmark Plus Microplate Reader (Bio-Rad Laboratories, Hercules, CA, USA). Results are presented as the mean ± standard deviation (SD) of IC50 values, determined by nonlinear regression analysis of dose–response curves (log(inhibitor) vs. response with variable slope (four parameters)) using GraphPad Prism 9 software (GraphPad Software, San Diego, CA, USA).

Caco-2 cells = assay: MTT cell viability assay in Caco-2 cells; assay type: cell-based; conditions: Homo sapiens, Caco-2; MTT assay, 72 h incubation, mean ± SD; read-out: IC50 Caco-2
Description: as §1

Mia Paca-2 cells [3] = assay: MTT cell viability assay in Mia Paca-2 cells; assay type: cell-based; conditions: Homo sapiens, MIA PaCa-2; MTT assay, 72 h incubation, mean ± SD; read-out: IC50 Mia Paca-2
Description: as §1

HCT116 cells [4] = conditions: MTT assay, 72 h; previously determined by the research team, ref [26]; cited from earlier work
SW620 cells [5] = tested on: SW620 cells; set-up: method as in PMID 31909511; conditions: MTT assay, previously determined by the research team, ref [35]; cited from earlier work
Mia Paca-2 cells [6] = tested on: Mia Paca-2 cells; set-up: method as in PMID 18007390; conditions: MTT assay, from the literature, ref [37]; cited from earlier work
A375 cells [7] = tested on: A375 cells; set-up: method as in PMID 23229057; conditions: MTT assay, from the literature, ref [38]; cited from earlier work
BJ cells = tested on: BJ cells; set-up: method as in doi:10.1039/C5RA19120C; conditions: MTT assay, previously determined by the research team, ref [39]; read-out: IC50 BJ (non-tumoral); cited from earlier work
SW480 cells = assay: MTT cell viability assay in SW480 cells; assay type: cell-based
Description: as §1

A375 cells [8] = assay: MTT cell viability assay in A375 cells; assay type: cell-based; conditions: Homo sapiens, A-375; MTT assay, 72 h incubation, mean ± SD; read-out: IC50 A375
Description: as §1

[9] = HCT-116, MTT assay, 72 h incubation, mean ± SD
[10] = SW480 cells, ratio of IC50 values

## CC(C)c1cc2c(c(O)c1O)[C@@]1(C(=O)O)CCCC(C)(C)[C@@H]1CC2 [CA 1, Carnosic acid]
HCT116 cells [1]; [9]
  IC50: 42 ± 4 µM
SW620 cells [2]
  IC50: 18 ± 2 µM
Caco-2 cells
  IC50: 34 ± 2 µM
Mia Paca-2 cells [3]
  IC50: 21 ± 1 µM

## N.N.[Cl][Pt][Cl] [Cisplatin]
HCT116 cells [4]
  IC50: 21 ± 1 µM
SW620 cells [5]
  IC50: 1.4 ± 0.5 µM
Mia Paca-2 cells [6]
  IC50: 5 ± 1 µM
A375 cells [7]
  IC50: 3 ± 1 µM
BJ cells
  IC50: 10 ± 2 µM

## CC(=O)Oc1c(C(C)C)cc2c(c1OC(C)=O)[C@@]1(C(=O)O)CCCC(C)(C)[C@@H]1CC2 [Compound 2, (4aR,10aS)-5,6-Bis(acetyloxy)-1,1-dimethyl-7-(propan-2-yl)1,3,4,9,10,10a-hexahydrophenanthrene-4a(2H)-carboxylic acid]
HCT116 cells [1]; [9]
  IC50: 44 ± 4 µM

## CCOC(=O)[C@]12CCCC(C)(C)[C@@H]1CCc1cc(C(C)C)c(OC(C)=O)c(OC(C)=O)c12 [Compound 4, Ethyl(4aR,10aS)-5,6-bis(acetyloxy)-1,1-dimethyl-7-(propan-2-yl)-1,3,4,9,10,10a-hexahydrophenanthrene-4a(2H)-carboxylate]
HCT116 cells [1]; HCT-116, 72 h
  IC50: 25 ± 2 µM

## CCCCOC(=O)[C@]12CCCC(C)(C)[C@@H]1CCc1cc(C(C)C)c(OC(C)=O)c(OC(C)=O)c12 [Compound 5, Butyl(4aR,10aS)-5,6-bis(acetyloxy)-1,1-dimethyl-7-(propan-2-yl)-1,3,4,9,10,10a-hexahydrophenanthrene-4a(2H)-carboxylate]
HCT116 cells [1]; [9]
  IC50: 26 ± 1 µM

## COC(=O)[C@]12CCCC(C)(C)[C@@H]1CC(=O)c1cc(C(C)C)c(OC(C)=O)c(OC(C)=O)c12 [Compound 6, Methyl(4aR,10aS)-5,6-bis(acetyloxy)-1,1-dimethyl-9-oxo-7-(propan-2-yl)-1,3,4,9,10,10a-hexahydrophenanthrene-4a(2H)-carboxylate]
HCT116 cells [1]; [9]
  IC50: 36 ± 1 µM

## CCOC(=O)[C@]12CCCC(C)(C)[C@@H]1CC(=O)c1cc(C(C)C)c(OC(C)=O)c(OC(C)=O)c12 [Compound 7, Ethyl(4aR,10aS)-5,6-bis(acetyloxy)-1,1-dimethyl-9-oxo-7-(propan-2-yl)-1,3,4,9,10,10a-hexahydrophenanthrene-4a(2H)-carboxylate]
HCT116 cells [1]; [9]
  IC50: 31 ± 3 µM

## CCCCOC(=O)[C@]12CCCC(C)(C)[C@@H]1CC(=O)c1cc(C(C)C)c(OC(C)=O)c(OC(C)=O)c12 [Compound 8, Butyl(4aR,10aS)-5,6-bis(acetyloxy)-1,1-dimethyl-9-oxo-7-(propan-2-yl)-1,3,4,9,10,10a-hexahydrophenanthrene-4a(2H)-carboxylate]
HCT116 cells [1]; HCT116 cells, ratio of IC50 values
  fold more active than cisplatin: 1.4 fold
HCT116 cells [1]; [9]
  IC50: 15.1 ± 0.7 µM
SW480 cells; Homo sapiens, SW480, MTT assay, 72 h incubation, mean ± SD, read-out: IC50 SW480
  IC50: 6.8 ± 0.6 µM
SW480 cells; [10]
  fold more active than cisplatin: 2.2 fold
  fold more potent than CA 1: 3.2 fold
SW620 cells [2]
  IC50: 11 ± 1 µM
Caco-2 cells
  IC50: 12.7 ± 0.3 µM
Mia Paca-2 cells [3]
  IC50: 12 ± 1 µM
A375 cells [8]
  IC50: 8.1 ± 0.5 µM

## COC(=O)[C@]12CCCC(C)(C)[C@@H]1CC(O)c1cc(C(C)C)c(OC(C)=O)c(OC(C)=O)c12 (stereo partly drawn) [Compound 9, Methyl(4aR,10aS)-5,6-bis(acetyloxy)-9-hydroxy-1,1-dimethyl-7-(propan-2-yl)-1,3,4,9,10,10a-hexahydrophenanthrene-4a(2H)-carboxylate]
HCT116 cells [1]; [9]
  IC50: 37 ± 3 µM

## CCOC(=O)[C@]12CCCC(C)(C)[C@@H]1CC(O)c1cc(C(C)C)c(OC(C)=O)c(OC(C)=O)c12 (stereo partly drawn) [Compound 10, Ethyl(4aR,10aS)-5,6-bis(acetyloxy)-9-hydroxy-1,1-dimethyl-7-(propan-2-yl)-1,3,4,9,10,10a-hexahydrophenanthrene-4a(2H)-carboxylate]
HCT116 cells [1]; [9]
  IC50: 34 ± 3 µM

## CCCCOC(=O)[C@]12CCCC(C)(C)[C@@H]1CC(O)c1cc(C(C)C)c(OC(C)=O)c(OC(C)=O)c12 (stereo partly drawn) [Compound 11, Butyl(4aR,10aS)-5,6-bis(acetyloxy)-9-hydroxy-1,1-dimethyl-7-(propan-2-yl)-1,3,4,9,10,10a-hexahydrophenanthrene-4a(2H)-carboxylate]
HCT116 cells [1]; [9]
  IC50: 27 ± 4 µM

## CC(=O)Oc1c(C(C)C)cc2c(c1OC(C)=O)[C@@]1(N=C=O)CCCC(C)(C)[C@@H]1CC2 [Compound 14, (4bR,8aS)-4b-Isocyanato-8,8-dimethyl-2-(propan-2-yl)-4b,5,6,7,8,8a,9,10-octahydrophenanthrene-3,4-diyl diacetate]
HCT116 cells [1]; HCT-116, 72 h
  IC50: 28 ± 3 µM

## COC(=O)N[C@]12CCCC(C)(C)[C@@H]1CCc1cc(C(C)C)c(OC(C)=O)c(OC(C)=O)c12 [Compound 15, (4bR,8aS)-4b-[(Methoxycarbonyl)amino]-8,8-dimethyl-2-(propan-2-yl)-4b,5,6,7,8,8a,9,10-octahydrophenanthrene-3,4-diyl diacetate]
HCT116 cells [1]; HCT-116, 72 h
  IC50: 55 ± 5 µM

## CCOC(=O)N[C@]12CCCC(C)(C)[C@@H]1CCc1cc(C(C)C)c(OC(C)=O)c(OC(C)=O)c12 [Compound 16, (4bR,8aS)-4b-[(Ethoxycarbonyl)amino]-8,8-dimethyl-2-(propan-2-yl)-4b,5,6,7,8,8a,9,10-octahydrophenanthrene-3,4-diyl diacetate]
HCT116 cells [1]; HCT-116, 72 h
  IC50: 37 ± 2 µM

## COC(=O)N[C@]12CCCC(C)(C)[C@@H]1CC(=O)c1cc(C(C)C)c(OC(C)=O)c(OC(C)=O)c12 [Compound 18, (4bR,8aS)-4b-[(Methoxycarbonyl)amino]-8,8-dimethyl-10-oxo-2-(propan-2-yl)-4b,5,6,7,8,8a,9,10-octahydrophenanthrene-3,4-diyl diacetate]
HCT116 cells [1]; HCT-116, 72 h
  IC50: > 50 µM

## CCOC(=O)N[C@]12CCCC(C)(C)[C@@H]1CC(=O)c1cc(C(C)C)c(OC(C)=O)c(OC(C)=O)c12 [Compound 19, (4bR,8aS)-4b-[(Ethoxycarbonyl)amino]-8,8-dimethyl-10-oxo-2-(propan-2-yl)-4b,5,6,7,8,8a,9,10-octahydrophenanthrene-3,4-diyl diacetate]
HCT116 cells [1]; HCT-116, 72 h
  IC50: 48.2 ± 0.1 µM
